Laboratory results as given in paper PMC3124361 (Journal of medicinal chemistry, 2011).
pIC50: −log10 of the molar value. Values after ≈ are worked out from the molar mass of the structure shown.

Key:
PfDHODH = biological target: T1, PfDHODH (Plasmodium falciparum, UniProt Q08210); test: PfDHODH DCIP dye-based enzyme assay; type: biochemical; conditions: for pIC50: IC50 PfDHODH
T1 sequence (Q08210 158-569 limits assumed): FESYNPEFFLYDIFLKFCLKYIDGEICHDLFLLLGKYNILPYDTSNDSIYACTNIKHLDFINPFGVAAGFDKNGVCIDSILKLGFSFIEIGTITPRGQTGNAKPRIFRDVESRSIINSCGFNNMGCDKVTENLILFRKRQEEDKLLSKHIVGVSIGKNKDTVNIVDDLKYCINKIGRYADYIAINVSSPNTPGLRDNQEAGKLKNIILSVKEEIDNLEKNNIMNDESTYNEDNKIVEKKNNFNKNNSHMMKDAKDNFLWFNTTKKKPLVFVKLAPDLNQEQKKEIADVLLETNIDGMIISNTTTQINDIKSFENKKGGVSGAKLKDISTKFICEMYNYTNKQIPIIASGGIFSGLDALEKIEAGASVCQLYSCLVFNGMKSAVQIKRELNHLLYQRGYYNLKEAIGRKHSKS

[1] = Non-equilibrium solubility by nephelometry, pH 6.5; type: physicochemical
[2] = In vitro metabolism in human liver microsomes; type: in vitro ADME; conditions: predicted hepatic extraction ratio

Cc1cc(NC2CCC2)n2ncnc2n1 [Compound 39, N-Cyclobutyl-5-methyl-[1,2,4]triazolo[1,5-a]pyrimidin-7-amine]
pIC50 (PfDHODH): < 4.00

Cc1cc(NC2CCCCCC2)n2ncnc2n1 [Compound 42, N-Cycloheptyl-5-methyl-[1,2,4]triazolo[1,5-a]pyrimidin-7-amine]
pIC50 (PfDHODH): < 4.00

CCCc1c(C)nc2ncnn2c1Nc1ccc(C)cc1 [Compound 64]
activity against PfDHODH (in words) (PfDHODH): complete loss in activity | pIC50 (PfDHODH): < 4.00

Cc1cc(NC2CCCCCCC2)n2ncnc2n1 [Compound 43, N-Cyclooctyl-5-methyl-[1,2,4]triazolo[1,5-a]pyrimidin-7-amine]
pIC50 (PfDHODH): < 4.00

Cc1cc(NC2CC2)n2ncnc2n1 [Compound 38, N-Cyclopropyl-5-methyl-[1,2,4]triazolo[1,5-a]pyrimidin-7-amine]
pIC50 (PfDHODH): < 4.00

Cc1cc(NCc2ccccc2)n2ncnc2n1 [Compound 53]
pIC50 (PfDHODH): < 4.00

Cc1cc(NCCCc2ccccc2)n2ncnc2n1 [Compound 57]
activity against PfDHODH (in words) (PfDHODH): mid-micromolar range activity

Cc1cc(Nc2ccc3c(c2)OCO3)n2ncnc2n1 [Compound 35, N-(Benzo[d][1,3]dioxol-5yl)-5-methyl-[1,2,4]triazolo[1,5-a]pyrimidin-7-amine]
aqueous solubility at pH 6.5 (in words) [1]: highly soluble | solubility ([1]; phosphate buffer): 186 to 372 µM (≈ 50.1 to 100 µg/mL) | Eh Human [2]: 0.37/ND

Cc1cc(Nc2ccc(NC(C)(C)C)cc2)n2ncnc2n1 [Compound 26, N^1-tert-Butyl-N^4(5-methyl-[1,2,4]triazolo[1,5-a]pyrimidin-7-yl)benzene-1,4-diamine]
pIC50 (PfDHODH): < 4.30

Cc1cc(NCc2ccc(C(F)(F)F)cc2)n2ncnc2n1 [Compound 55]
activity against PfDHODH (in words) (PfDHODH): inactive | pIC50 (PfDHODH): < 4.00

CCCCCCCCc1ccc(Nc2cc(C)nc3ncnn23)cc1 [Compound 13, N-(4-Octylphenyl)-5-methyl-[1,2,4]triazolo[1,5-a]pyrimidin-7-amine]
pIC50 (PfDHODH): < 4.30

Cc1cc(NOc2ccccc2)n2ncnc2n1 [Compound 52, N-(5-Methyl-[1,2,4]triazolo[1,5-a]pyrimidin-7-yl)-O-phenylhydroxylamine]
activity against PfDHODH (in words) (PfDHODH): inactive | pIC50 (PfDHODH): < 4.00

FC(F)(F)c1ccc(Nc2cc(C(F)(F)F)nc3ncnn23)cc1 [Compound 60]
fold reduction in PfDHODH inhibitory activity versus 2 (PfDHODH; comparator 2): 4 fold

Cc1cc(NCCc2ccccc2)n2ncnc2n1 [Compound 56, 5-Methyl-N-phenethyl-[1,2,4]triazolo[1,5-a]pyrimidin-7-amine]
activity against PfDHODH (in words) (PfDHODH): mid-micromolar range activity

Cc1cc(Nc2ccc(Cl)c(F)c2)n2ncnc2n1 [Compound 30, N-(4-Chloro-3-fluorophenyl)-5-methyl-[1,2,4]triazolo[1,5-a]pyrimidin-7-amine]
fold decrease in PfDHODH IC50 over the 4-Cl alone (PfDHODH; comparator 4-Cl-Ph (DSM89)): 3 fold

Cc1cc(NC2CCCCC2)n2ncnc2n1 [Compound 41, N-Cyclohexyl-5-methyl-[1,2,4]triazolo[1,5-a]pyrimidin-7-amine]
pIC50 (PfDHODH): < 4.00

Cc1cc(NCc2ccc(F)cc2)n2ncnc2n1 [Compound 54]
activity against PfDHODH (in words) (PfDHODH): inactive | pIC50 (PfDHODH): < 4.00

FC(F)(F)c1ccc(Nc2cc(Cl)nc3ncnn23)cc1 [Compound 61]
fold better activity (lower IC50) against PfDHODH than 2 (PfDHODH; comparator 2): 2 fold

CCc1cc(Nc2ccc(C(F)(F)F)cc2)n2ncnc2n1 [Compound 59, 5-Ethyl-N-(4-trifluoromethyl)phenyl-[1,2,4]triazolo[1,5-a]pyrimidin-7-amine]
fold reduction in PfDHODH inhibitory activity versus 2 (PfDHODH; comparator 2): 2 fold

Cc1cc(NC2CCCC2)n2ncnc2n1 [Compound 40, N-Cyclopentyl-5-methyl-[1,2,4]triazolo[1,5-a]pyrimidin-7-amine]
pIC50 (PfDHODH): < 4.00

Cc1cc(Nc2ccc(N3CCOCC3)cc2)n2ncnc2n1 [Compound 25, N-(4-Morpholinophenyl)-5-methyl-[1,2,4]triazolo[1,5-a]pyrimidin-7-amine]
pIC50 (PfDHODH): < 4.00
